Measurements reported in ChEMBL document CHEMBL4311957, “Recent advances in natural antifungal flavonoids and their derivatives” (Bioorg Med Chem Lett, 2019).
Converted amounts (≈) assume the structure as drawn.

Tests used:
Type in all cases: functional
Aspergillus fumigatus [1] = experiment: Antifungal activity against Aspergillus fumigatus after 24 hrs by broth dilution method
Candida albicans [2] = experiment: Antifungal activity against Candida albicans after 24 hrs by broth dilution method
Candida parapsilosis [3] = experiment: Antifungal activity against Candida parapsilosis ATCC 22019 after 24 hrs; settings: Lodderomyces parapsilosis, ATCC 22019, 24 h
Aspergillus fumigatus [4] = experiment: Antifungal activity against Aspergillus fumigatus after 24 to 48 hrs
Pichia kudriavzevii [5] = experiment: Antifungal activity against Candida krusei ATCC 6258 after 24 hrs; settings: ATCC 6258, 24 h
Nakaseomyces glabratus [6] = experiment: Antifungal activity against Candida glabrata ATCC 90030 after 24 hrs; settings: ATCC 90030, 24 h
Pichia kudriavzevii [7] = experiment: Antifungal activity against Candida krusei E 28 after 24 to 48 hrs
Candida albicans [8] = experiment: Antifungal activity against Candida albicans ATCC 24433 after 24 hrs; settings: ATCC 24433, 24 h
Candida tropicalis [9] = experiment: Antifungal activity against Candida tropicalis 156 after 24 to 48 hrs
Nakaseomyces glabratus [10] = experiment: Antifungal activity against Candida glabrata 20/I after 24 to 48 hrs
[11] = tested on: Trichophyton mentagrophytes; experiment: Antifungal activity against Trichophyton mentagrophytes after 72 to 120 hrs
Candida albicans [12] = experiment: Antifungal activity against Candida albicans ATCC 44859 after 24 to 48 hrs
Aspergillus fumigatus [13] = experiment: Fungicidal activity against Aspergillus fumigatus after 24 hrs by broth dilution method
[14] = tested on: Trichophyton mentagrophytes; experiment: Antifungal activity against Trichophyton mentagrophytes after 24 hrs by broth dilution method
[15] = tested on: Trichophyton mentagrophytes; experiment: Fungicidal activity against Trichophyton mentagrophytes after 24 hrs by broth dilution method
[16] = tested on: Meyerozyma guilliermondii; experiment: Fungicidal activity against FLC-resistant Candida guilliermondii DSM 11947
Candida albicans [17] = experiment: Fungicidal activity against FLC-resistant Candida albicans ATCC 10231
Candida albicans [18] = experiment: Fungicidal activity against FLC-resistant Candida stellatoidea CBS 1905
Nakaseomyces glabratus [19] = experiment: Antifungal activity against FLC-resistant Candida glabrata DSM 11226
[20] = tested on: Meyerozyma guilliermondii; experiment: Antifungal activity against FLC-resistant Candida guilliermondii DSM 11947
Candida dubliniensis [21] = experiment: Fungicidal activity against FLC-resistant Candida dubliniensis CBS 7987
Candida dubliniensis [22] = experiment: Antifungal activity against FLC-resistant Candida dubliniensis CBS 7987
Clavispora lusitaniae [23] = experiment: Fungicidal activity against FLC-resistant Candida lusitaniae DSM 70102
Yarrowia lipolytica [24] = experiment: Antifungal activity against FLC-resistant Candida lipolytica KKP 332
Pichia kudriavzevii [25] = experiment: Fungicidal activity against FLC-resistant Candida krusei DSM 6128
Pichia kudriavzevii [26] = experiment: Antifungal activity against FLC-resistant Candida krusei DSM 6128
Candida parapsilosis [27] = experiment: Antifungal activity against FLC-resistant Candida parapsilosis DSM 5784; settings: Lodderomyces parapsilosis
Candida tropicalis [28] = experiment: Fungicidal activity against FLC-resistant Candida tropicalis KKP 334
Candida tropicalis [29] = experiment: Antifungal activity against FLC-resistant Candida tropicalis KKP 334
[30] = Antifungal activity against FLC-resistant Candida arborea KKP 319
Nakaseomyces glabratus [31] = experiment: Fungicidal activity against FLC-resistant Candida glabrata DSM 11226
Candida parapsilosis [32] = experiment: Fungicidal activity against FLC-resistant Candida parapsilosis DSM 5784; settings: Lodderomyces parapsilosis
Kluyveromyces marxianus [33] = experiment: Antifungal activity against FLC-resistant Candida pseudotropicalis KKP 324
Candida albicans [34] = experiment: Antifungal activity against FLC-resistant Candida albicans ATCC 10231
Clavispora lusitaniae [35] = experiment: Antifungal activity against FLC-resistant Candida lusitaniae DSM 70102
Candida albicans [36] = experiment: Antifungal activity against FLC-resistant Candida stellatoidea CBS 1905
Yarrowia lipolytica [37] = experiment: Fungicidal activity against FLC-resistant Candida lipolytica KKP 332
Kluyveromyces marxianus [38] = experiment: Fungicidal activity against FLC-resistant Candida pseudotropicalis KKP 324
[39] = Fungicidal activity against FLC-resistant Candida arborea KKP 319

Structure (SMILES): Cc1cc(O)c(C(=O)/C=C/c2coc3ccccc3c2=O)c(=O)o1
- MFC (Aspergillus fumigatus [1]): 50 µg/mL (≈ 154 µM)
- MIC (Candida albicans [2]): 12.5 µg/mL (≈ 38.5 µM)

Structure (SMILES): O=C(/C=C/c1ccccc1[N+](=O)[O-])c1cnccn1
- MIC (Candida parapsilosis [3]): 0.78 to 3.12 µg/mL (≈ 3.06 to 12.2 µM)
- MIC (Aspergillus fumigatus [4]): 7.81 to 500 µg/mL (≈ 30.6 to 1960 µM)
- MIC (Pichia kudriavzevii [5]): 0.78 to 3.12 µg/mL (≈ 3.06 to 12.2 µM)
- MIC (Nakaseomyces glabratus [6]): 0.78 to 3.12 µg/mL (≈ 3.06 to 12.2 µM)
- MIC (Pichia kudriavzevii [7]): 7.81 to 125 µg/mL (≈ 30.6 to 490 µM)
- MIC (Candida albicans [8]): 0.78 to 3.12 µg/mL (≈ 3.06 to 12.2 µM)
- MIC (Candida tropicalis [9]): 7.81 to 500 µg/mL (≈ 30.6 to 1960 µM)
- MIC (Nakaseomyces glabratus [10]): 7.81 to 41.6 µg/mL (≈ 30.6 to 163 µM)
- MIC [11]: 6.51 to 31.2 µg/mL (≈ 25.5 to 122 µM)
- MIC (Candida albicans [12]): 7.81 µg/mL (≈ 30.6 µM)

Structure (SMILES): O=C1NC(=O)C(C(=O)/C=C/c2coc3ccccc3c2=O)C(=O)N1
- MIC (Candida albicans [2]): 12.5 µg/mL (≈ 38.3 µM)
- MFC (Aspergillus fumigatus [13]): 50 µg/mL (≈ 153 µM)
- MIC [14]: 12.5 µg/mL (≈ 38.3 µM)
- MFC [15]: 50 µg/mL (≈ 153 µM)

Structure (SMILES): COc1ccc2oc(=O)sc2c1C(=O)/C=C/c1ccc(OCCN(C)C)cc1
- MIC [16]: 8 to 32 µg/mL (≈ 20 to 80.1 µM)
- MIC (Candida albicans [17]): 8 to 32 µg/mL (≈ 20 to 80.1 µM)
- MIC (Candida albicans [18]): 8 to 32 µg/mL (≈ 20 to 80.1 µM)
- MIC (Nakaseomyces glabratus [19]): 1 to 16 µg/mL (≈ 2.5 to 40.1 µM)
- MIC [20]: 1 to 16 µg/mL (≈ 2.5 to 40.1 µM)
- MIC (Candida dubliniensis [21]): 8 to 32 µg/mL (≈ 20 to 80.1 µM)
- MIC (Candida dubliniensis [22]): 1 to 16 µg/mL (≈ 2.5 to 40.1 µM)
- MIC (Clavispora lusitaniae [23]): 8 to 32 µg/mL (≈ 20 to 80.1 µM)
- MIC (Yarrowia lipolytica [24]): 1 to 16 µg/mL (≈ 2.5 to 40.1 µM)
- MIC (Pichia kudriavzevii [25]): 8 to 32 µg/mL (≈ 20 to 80.1 µM)
- MIC (Pichia kudriavzevii [26]): 1 to 16 µg/mL (≈ 2.5 to 40.1 µM)
- MIC (Candida parapsilosis [27]): 1 to 16 µg/mL (≈ 2.5 to 40.1 µM)
- MIC (Candida tropicalis [28]): 8 to 32 µg/mL (≈ 20 to 80.1 µM)
- MIC (Candida tropicalis [29]): 1 to 16 µg/mL (≈ 2.5 to 40.1 µM)
- MIC [30]: 1 to 16 µg/mL (≈ 2.5 to 40.1 µM)
- MIC (Nakaseomyces glabratus [31]): 8 to 32 µg/mL (≈ 20 to 80.1 µM)
- MIC (Candida parapsilosis [32]): 8 to 32 µg/mL (≈ 20 to 80.1 µM)
- MIC (Kluyveromyces marxianus [33]): 1 to 16 µg/mL (≈ 2.5 to 40.1 µM)
- MIC (Candida albicans [34]): 1 to 16 µg/mL (≈ 2.5 to 40.1 µM)
- MIC (Clavispora lusitaniae [35]): 1 to 16 µg/mL (≈ 2.5 to 40.1 µM)
- MIC (Candida albicans [36]): 1 to 16 µg/mL (≈ 2.5 to 40.1 µM)
- MIC (Yarrowia lipolytica [37]): 8 to 32 µg/mL (≈ 20 to 80.1 µM)
- MIC (Kluyveromyces marxianus [38]): 8 to 32 µg/mL (≈ 20 to 80.1 µM)
- MIC [39]: 8 to 32 µg/mL (≈ 20 to 80.1 µM)
